# Reference: patent publication US20060074046A1, “Oral administration of decitabine salt” (priority 2004, published 2006)
# Counter-ions that a name gives are not always drawn. Like-named read-outs stand apart in the source and are kept apart here.
# Key:
# [1] = 1 min
# physchem = conditions: water, thermodynamic from solid, Total Solubility
# [2] = 0.05 M phosphate buffer; for Potency Found (%) At pH 2.5 / Potency Found (%) At pH 7.0: 0.5 mg/mL, ambient
# [3] = Hygroscopicity, weight gain in 1 week at relative humidity; assay type: physicochemical; conditions: solid state
Total Solubility [1] [mg/mL],solubility at 1 min (physchem) [mg/mL],Potency Found (%) At pH 2.5 ([2]; t = 0.5 hr) [%],Potency Found (%) At pH 7.0 ([2]; t = 0.5 hr) [%],Potency Found (%) At pH 7.0 ([2]; t = 24 hr) [%],Hygroscopicity-% weight gain in 1 week ([3]; 56% RH) [%],Hygroscopicity-% weight gain in 1 week ([3]; 98% RH) [%],solubility at 1 min (physchem; decitabine or azacitidine free base equivalents) [mg/mL],Potency Found (%) At pH 2.5 ([2]; t = 24 hr) [%],Structure (SMILES),solution stability compared with the free base ([2]; pH 7.0 and 2.5)
14,14,73.62,86.74,79.43,1.74,5.61,–,–,"Nc1ncn([C@@H]2O[C@H](CO)[C@@H](O)[C@H]2O)c(=O)n1 [Compound 2, 5-azacytidine, reference compound]",–
205,205,64.56,77.47,65.79,6.05,38.11,137,49.94,"Nc1ncn([C@@H]2O[C@H](CO)C(O)C2O)c(=O)n1 (some centres unmarked) [Compound 19, azacitidine mesylate]",slightly less than the free azacitidine base
